Source: patent EP4806894A1, “TNAP INHIBITORY COMPOUND AND USE THEREOF” (Rednvia Co., Ltd., priority 2023, dated 2025)
Structures can show the parent of a compound that is named as a salt.

What was measured:
TNAP = molecular target: T1, TNAP (Homo sapiens, UniProt P05186); experiment: TNAP inhibitory activity, colorimetric assay (alkaline phosphatase assay kit ab83369, pNPP substrate); assay type: biochemical; conditions: TNAP enzyme, 2 hours at room temperature, absorbance 405 nm
T1 sequence (P05186 18-502 limits assumed): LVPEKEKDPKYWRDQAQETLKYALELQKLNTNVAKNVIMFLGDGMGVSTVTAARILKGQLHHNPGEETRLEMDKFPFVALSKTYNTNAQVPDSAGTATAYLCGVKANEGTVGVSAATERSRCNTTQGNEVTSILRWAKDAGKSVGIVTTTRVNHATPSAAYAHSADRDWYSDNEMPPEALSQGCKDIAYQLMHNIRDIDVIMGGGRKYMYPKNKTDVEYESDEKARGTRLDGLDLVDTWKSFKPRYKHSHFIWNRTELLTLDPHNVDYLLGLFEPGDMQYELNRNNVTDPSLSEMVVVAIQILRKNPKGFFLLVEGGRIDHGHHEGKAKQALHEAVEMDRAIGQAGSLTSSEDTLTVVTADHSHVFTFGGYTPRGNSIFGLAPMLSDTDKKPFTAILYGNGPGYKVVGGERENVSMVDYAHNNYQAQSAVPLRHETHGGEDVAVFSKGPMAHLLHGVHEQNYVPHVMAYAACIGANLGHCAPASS
Protocol: The TNAP inhibitory activity of the compounds according to the present invention was analyzed by colorimetric assay.
The experiments were performed according to the protocol of the alkaline phosphatase assay kit ab83369.
TNAP enzyme at a concentration of 0.2 ng/µl was dispensed into a 96-well plate (Costar) (10 µl/well), to which the 10-fold diluted test substance was added (15 µl/well). The plate was incubated at room temperature, shielded from light, for 10 minutes to allow the enzyme and compound to act. After incubation, 125 µl of 1 mM substrate (pNPP) was added to each well of the plate, and the plate was incubated for 2 hours at room temperature in a darkened state to allow the enzyme, substrate, and test compound to act. Absorbance was measured at 405 nm using a microplate reader (Tecan spark), and IC50 was calculated using GraphPad Prism 9. The amount of p-nitrophenol produced was calculated through the absorbance, and the degree of TNAP activity inhibition was evaluated through the degree of inhibition of p-nitrophenol production, and the concentration of the compound that inhibited 50% was calculated as the IC50 value.

saos-2 cells = experiment: Anticalcification efficacy in saos-2 cells (osteogenic medium, Alizarin Red staining); assay type: cell-based; conditions: Homo sapiens, 168 h, test compound 1 µM, 7 days osteogenic medium, Alizarin Red absorbance 540 nm, read-out: calcification inhibition
Protocol: To confirm the inhibitory effect of calcification in saos-2 cells in which calcification is induced by overexpression of TNAP, saos-2 cells were cultured in a culture medium in an incubator at 37°C, 95% humidity, and 5% CO2. RPMI-1640 (Corning) supplemented with 10% FBS (Gibco) and 1% Pen/Strep (Gibco) was used as the culture medium.
Saos-2 cells were seeded in a 48-well plate at the density of 1.5 x 10^4 cells/well and used in the experiment when they reached 80-90% confluence after stabilization for 2 days.
After saos-2 cells were cultured in a 48-well plate to 80-90% confluence, the culture medium was removed and replaced with an osteogenic medium (OM). DMEM (Gibco) containing 10% FBS, 1% Pen/Strep, 100 nM dexamethasone (Sigma), 10 mM β-glycerophosphate (Sigma), and 0.05 mM L-ascorbic acid (Sigma) was used as the OM. Osteogenic differentiation of saos-2 cells by OM was induced for 7 days, and OM was replaced every 2 to 3 days.
When inducing calcification through OM in saos-2 cells, the cells were treated with concentrations of […] of the TNAP inhibitor test compounds with the OM replacement cycle, except for the control group (OM).
After 7 days of OM induction, the medium was removed from each well and the plate was washed twice with PBS. Cells were fixed with 4% paraformaldehyde for 1 hour, then the fixative was removed and washed twice with deionized water (DW). ARS solution was added to the plate and shaken for 1 hour to stain the cells. When the cells were sufficiently stained red, the dye was removed, the cells were washed carefully with DW, dried, and then photographs were taken of the stained cells. The red-stained area represents calcification induced by OM, and the degree of calcification was determined based on the degree of redness. To quantify this, 10% cetylpyridinium chloride was dispensed into the wells and the dye was dissolved. The dye-dissolved solution was transferred to each well of a 96 well plate and absorbance was measured at 540 nm.
The degree of decrease in the measured absorbance by the test compounds based on the absorbance for OM was evaluated as the degree of inhibition of calcification.

IC50 (TNAP) | SMILES | inhibition at 1 µM (saos-2 cells)
100 to 1000 nM | COc1ccc(OC)c(S(=O)(=O)Nc2cnc3c(c2)C(=O)NCCC3)c1 [Example 16, 2,5-dimethoxy-N-(5-oxo-6,7,8,9-tetrahydro-5H-pyrido[3,2-c]azepine-3-yl)benzenesulfonamide] | ≥ 50%
100 to 1000 nM | COC(=O)Cc1ccc(-c2ccc(OC)c(S(=O)(=O)Nc3cnc4c(c3)C(=O)NC4)c2)cc1 [Example 27, methyl 2-(4'-methoxy-3'-(N-(5-oxo-6,7-dihydro-5H-pyrrolo[3,4-b]pyridine-3-yl)sulfamoyl)-[1,1'-biphenyl]-4-yl)acetate] | ≥ 50%
100 to 1000 nM | COc1ccc(-c2cnn(C(C)c3nc(C)no3)c2)cc1S(=O)(=O)Nc1cnc2c(c1)C(=O)NCC2 (stereo not shown) [Example 70, 2-methoxy-5-(1-(1-(3-methyl-1,2,4-oxadiazole-5-yl)ethyl)-1H-pyrazole-4-yl)-N-(5-oxo-5,6,7,8-tetrahydro-1,6-naphthyridine-3-yl)benzenesulfonamide] | ≥ 50%
100 to 1000 nM | COc1ccc(-c2cnn(C3CC3)c2)cc1S(=O)(=O)Nc1cnc2c(c1)C(=O)NCC2 [Example 74, 5-(1-cyclopropyl-1H-pyrazole-4-yl)-2-methoxy-N-(5-oxo-5,6,7,8-tetrahydro-1,6-naphthyridine-3-yl)benzenesulfonamide] | ≥ 50%
10 to 100 nM | COc1ccc(Br)cc1S(=O)(=O)Nc1cnc2c(c1)C(=O)NC2 [Example 2, 5-bromo-2-methoxy-N-(5-oxo-6,7-dihydro-5H-pyrrolo[3,4-b]pyridine-3-yl)benzenesulfonamide] | ≥ 50%
100 to 1000 nM | COc1ccc(-c2ccc3c(c2)OCCO3)cc1S(=O)(=O)Nc1cnc2c(c1)C(=O)NCC2 [Example 29, 5-(2,3-dihydrobenzo[b][1,4]dioxine-6-yl)-2-methoxy-N-(5-oxo-5,6,7,8-tetrahydro-1,6-naphthyridine-3-yl)benzenesulfonamide] | ≥ 50%
10 to 100 nM | COc1ccc(-c2ccc(CCC(=O)O)cc2)cc1S(=O)(=O)Nc1cnc2c(c1)C(=O)NCC2 [Example 50, 3-(4'-methoxy-3'-(N-(5-oxo-5,6,7,8-tetrahydro-1,6-naphthyridine-3-yl)sulfamoyl)-[1,1'-biphenyl]-4-yl)propanoic acid] | ≥ 50%
10 to 100 nM | COc1ccc(-c2cnn(C(C)(C)C)c2)cc1S(=O)(=O)Nc1cnc2c(c1)C(=O)NCC2 [Example 122, 5-(1-(tert-butyl)-1H-pyrazole-4-yl)-2-methoxy-N-(5-oxo-5,6,7,8-tetrahydro-1,6-naphthyridine-3-yl)benzenesulfonamide] | < 0%
≤ 10 nM | CCn1cc(-c2ccc(OC)c(S(=O)(=O)Nc3cnc4c(c3)C(=O)NCC4)c2)c(C(F)(F)F)n1 [Example 82, 5-(1-ethyl-3-(trifluoromethyl)-1H-pyrazole-4-yl)-2-methoxy-N-(5-oxo-5,6,7,8-tetrahydro-1,6-naphthyridine-3-yl)benzenesulfonamide] | ≥ 50%
10 to 100 nM | COc1ccc(-c2cnn(C(C)C)c2)cc1S(=O)(=O)Nc1cnc2c(c1)C(=O)NCC2 [Example 72, 5-(1-isopropyl-1H-pyrazole-4-yl)-2-methoxy-N-(5-oxo-5,6,7,8-tetrahydro-1,6-naphthyridine-3-yl)benzenesulfonamide] | ≥ 50%
≥ 1000 nM | COc1ccc(-c2cnc(N)nc2C(F)(F)F)cc1S(=O)(=O)Nc1cnc2c(c1)C(=O)NCC2 [Example 78, 5-(2-amino-4-(trifluoromethyl)pyrimidine-5-yl)-2-methoxy-N-(5-oxo-5,6,7,8-tetrahydro-1,6-naphthyridine-3-yl)benzenesulfonamide] | < 0%
100 to 1000 nM | O=C1NCc2ncc(NS(=O)(=O)c3cc(Br)cc4c3OCC4)cc21 [Example 5, 5-bromo-N-(5-oxo-6,7-dihydro-5H-pyrrolo[3,4-b]pyridine-3-yl)-2,3-dihydrobenzofuran-7-sulfonamide] | 0 to 50%

Continued, molecule first:

SMILES | IC50 (TNAP) | inhibition at 1 µM (saos-2 cells)
COc1ccc(F)cc1S(=O)(=O)Nc1cnc2c(c1)CNCC2 [Example 90, 5-fluoro-2-methoxy-N-(5,6,7,8-tetrahydro-1,6-naphthyridine-3-yl)benzenesulfonamide hydrochloride] | 100 to 1000 nM | 0 to 50%
NCc1ccc(-c2cc3c(c(S(=O)(=O)Nc4cnc5c(c4)C(=O)NCC5)c2)OCC3)cc1 [Example 41, 5-(4-(aminomethyl)phenyl)-N-(5-oxo-5,6,7,8-tetrahydro-1,6-naphthyridine-3-yl)-2,3-dihydrobenzofuran-7-sulfonamide] | ≥ 1000 nM | < 0%
COc1ccc(Br)cc1S(=O)(=O)Nc1cnc2c(c1)CN(C(=O)OC(C)(C)C)CC2 [Example 88, tert-butyl 3-((5-bromo-2-methoxyphenyl)sulfonamido)-7,8-dihydro-1,6-naphthyridine-6(5H)-carboxylate] | 100 to 1000 nM | ≥ 50%
COc1ccc(-c2cnn(C(C)C(=O)O)c2)cc1S(=O)(=O)Nc1cnc2c(c1)C(=O)NCC2 (stereo not shown) [Example 43, 2-(4-(4-methoxy-3-(N-(5-oxo-5,6,7,8-tetrahydro-1,6-naphthyridine-3-yl)sulfamoyl)phenyl)-1H-pyrazole-1-yl)propanoic acid] | 10 to 100 nM | ≥ 50%
COc1ccc(Br)cc1S(=O)(=O)Nc1cnc2c(c1)CN(C(=O)N1CCOCC1)CC2 [Example 110, 5-bromo-2-methoxy-N-(6-(morpholine-4-carbonyl)-5,6,7,8-tetrahydro-1,6-naphthyridine-3-yl)benzenesulfonamide] | 10 to 100 nM | ≥ 50%
COc1ccc(F)cc1S(=O)(=O)Nc1cnc2c(c1)CN(C(=O)NC(C)C)CC2 [Example 105, 3-((5-fluoro-2-methoxyphenyl)sulfonamido)-N-isopropyl-7,8-dihydro-1,6-naphthyridine-6(5H)-carboxamide] | 10 to 100 nM | ≥ 50%
O=C1NCc2ncc(NS(=O)(=O)c3c(F)cc(F)cc3Br)cc21 [Example 12, 2-bromo-4,6-difluoro-N-(5-oxo-6,7-dihydro-5H-pyrrolo[3,4-b]pyridine-3-yl)benzenesulfonamide] | ≥ 1000 nM | < 0%
COc1ccc(Cl)cc1S(=O)(=O)Nc1cnc2c(c1)CN(C(=O)OCC(C)(C)C)CC2 [Example 98, neopentyl3-((5-chloro-2-methoxyphenyl)sulfonamido)-7,8-dihydro-1,6-naphthyridine-6(5H)-carboxylate] | 100 to 1000 nM | ≥ 50%
COc1ccc(Br)cc1S(=O)(=O)Nc1cnc2c(c1)CN(C(C)C)CC2 [Example 113, 5-bromo-N-(6-isopropyl-5,6,7,8-tetrahydro-1,6-naphthyridine-3-yl)-2-methoxybenzenesulfonamide] | 100 to 1000 nM | < 0%
O=C1NCCc2ncc(NS(=O)(=O)c3cc(Br)cc4c3OCC4)cc21 [Example 10, 5-bromo-N-(5-oxo-5,6,7,8-tetrahydro-1,6-naphthyridine-3-yl)-2,3-dihydrobenzofuran-7-sulfonamide] | 100 to 1000 nM | ≥ 50%
COc1ccc(Cl)cc1S(=O)(=O)Nc1cnc2c(c1)CNCC2 [Example 92, 5-chloro-2-methoxy-N-(5,6,7,8-tetrahydro-1,6-naphthyridine-3-yl)benzenesulfonamide hydrochloride] | 10 to 100 nM | ≥ 50%
